From PubChem BioAssay AID624166 (Johns Hopkins Ion Channel Center, 2012) come the findings set out here.

Calls of active or inactive are those of the source.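 The calls were made as follows: active = raises the calcium signal in non-induced parental cells at some tested dose and a dose-response curve can be fitted; inactive = no activation at any dose, or no dose-response curve.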

The first test concerns HEK293 M3R non-induced RGS4, carbachol calcium Fluo4. Put plainly: carbachol calcium response in non-induced cells, SAR follow-up, counter-screen for RGS4 potentiator project, cell-based, HEK293 M3R, non-induced RGS4, SAR compounds (AID 624166).
Conditions: not given
On to `CC(C)Cn1c(-c2ccc(F)cc2)n[nH]c1=S`, for which the EC50 was 4.11 µM.
The same measure, in the same setting: with `CCn1cc(CN2CCC(n3nccc3NC(=O)c3ccc(OC)cc3)CC2)cn1` the figure was 9.27 µM; with `S=c1[nH]nc(-c2ccc(Cl)cc2)n1CC1CCCO1` (stereo not drawn), 7.62 µM; with `COC(=O)c1cccc(Nc2nc(-c3cccnc3)nc3ccccc23)c1`, 5.82 µM.
On the same count and under the same terms, with `CN(Cc1ccc(F)cc1)C(=O)C(c1ccccc1)c1ccccc1` the figure was 3.18 µM.
Still for that read-out and setting: under `CCN1CCCC1CNCc1ccccc1OCc1ccc(F)cc1` (stereo not drawn) stands 10.8 µM.
As to `COC(=O)C1CCCN(C(=O)c2cc(-c3ccc(C)cc3)nc3ccccc23)C1` (stereo not drawn), the EC50 was 16.1 µM.
Turning to `CCCCn1c(-c2csc(CCC)c2)n[nH]c1=S`, the EC50 is 3.34 µM.
Same read-out and setting: under `Cc1ccc(S(=O)(=O)c2ccc(Oc3cccc(C)c3)cc2)cc1` stands 2.7 µM.

Tested on in a further test: not listed separately
The test is described as above. Conditions: HEK293 M3R non-induced RGS4, carbachol calcium Fluo4; at 33.3 µM (top of the series).
With `O=C(Nc1ccccc1N1CCN(C(=O)c2ccccc2)CC1)c1ccc(Cl)o1`, the calcium response, lower = inhibition is 17.2 (inactive).
For the molecule `Cc1ccc(NC(=O)c2cc(-c3cccs3)nc3ccccc23)nc1`, the calcium response, lower = inhibition was 52.7 (inactive).
On to `O=C(CNC1CCCCCC1)Nc1ccc(S(=O)(=O)NC2CC2)cc1`, for which the calcium response, lower = inhibition is 19.6 (inactive).
On to `O=C(CNc1ccccc1)c1ccc([N+](=O)[O-])cc1`, for which the calcium response, lower = inhibition is 24.6 (inactive).
